Structures are written as SMILES.

This experiment concerns the target T1, LHRH rat pituitary receptor (Rattus norvegicus, UniProt P30969).
T1 construct: from tissue; host or cells: rat pituitary
T1 sequence (P30969 1-327): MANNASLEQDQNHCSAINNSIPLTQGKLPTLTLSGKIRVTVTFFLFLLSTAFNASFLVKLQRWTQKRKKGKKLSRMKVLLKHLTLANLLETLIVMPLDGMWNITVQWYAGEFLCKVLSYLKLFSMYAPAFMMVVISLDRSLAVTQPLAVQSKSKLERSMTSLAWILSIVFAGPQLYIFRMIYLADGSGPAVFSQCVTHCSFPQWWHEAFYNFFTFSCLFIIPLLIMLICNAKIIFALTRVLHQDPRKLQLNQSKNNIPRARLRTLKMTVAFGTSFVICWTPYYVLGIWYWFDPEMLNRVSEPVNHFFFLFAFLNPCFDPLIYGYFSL
Description: LHRH rat pituitary receptor binding (pKI). Particulars: receptor binding affinity, negative logarithm of the equilibrium dissociation constants. Here is the method: Representative compounds of the present invention were evaluated in in vitro tests for LHRH rat pituitary receptor binding (pKI) and for LH inhibition from rat pituitary cells for antagonist potency (pA2). The tests employed the methods detailed in F. Haviv, et al. J. Med. Chem., 32: 2340-2344 (1989). The receptor binding affinity (pKI) is the negative logarithm of the equilibrium dissociation constants.
In general, Ki refers to a measure of affinity in units of concentration, obtained from inhibition or displacement. High values mean lower affinity, low ones higher affinity. `CC[C@H]1OC(=O)[C@H](C)[C@@H](OC(=O)N2C(=O)OC[C@@H]2C)[C@H](C)[C@@H](O[C@@H]2O[C@H](C)C[C@H](N(C)C3CCCCC3)[C@H]2O)[C@](C)(OC)C[C@@H](C)C(=O)[C@H](C)[C@H]2N(CCc3ccc(Cl)cc3)C(=O)O[C@]12C` [Example 26, 11-Deoxy-11-[carboxy(4-chlorophenethyl)amino]-3-O-[4-(S)-methyl-oxazolidin-2-one]carbamoyl-5-O-(3'-N-desmethyl-3'-N-cyclohexyl)desosaminyl-6-O-methyl-erythronolide A 11,12-(cyclic carbamate)]: affinity was put at a Ki of 0.166 nM.

Take `CCCN(C)[C@H]1C[C@@H](C)O[C@@H](O[C@@H]2[C@@H](C)[C@H](OC(=O)N3C(=O)OC[C@@H]3C)[C@@H](C)C(=O)O[C@H](CC)[C@@]3(C)OC(=O)N(CCc4ccc(Cl)cc4)[C@@H]3[C@@H](C)C(=O)[C@H](C)C[C@@]2(C)OC)[C@@H]1O` [Example 27, 11-Deoxy-11-carboxy(4-chlorophenethyl)amino]-3-O-[4-(S)-methyl-oxazolidin-2-one]carbamoyl-5-O-(3'-N-desmethyl-3'-N-n-propyl)desosaminyl-6-O-methyl-erythronolide A 11,12-(cyclic carbamate)]: the “p KI” value came to 9.60.

As for `CC[C@H]1OC(=O)[C@H](C)[C@@H](OC(=O)N2C(=O)OC[C@@H]2C)[C@H](C)[C@@H](O[C@@H]2O[C@H](C)C[C@H](N(C)CC3CC3)[C@H]2O)[C@](C)(OC)C[C@@H](C)C(=O)[C@H](C)[C@H]2N(CCc3ccc(F)cc3)C(=O)O[C@]12C` [Example 28, 11-Deoxy-11-[carboxy(4-fluorophenethyl)amino]-3-O-[4-(S)-methyl-oxazolidin-2-one]carbamoyl-5-O-(3'-N-desmethyl-3'-N-cyclopropylmethyl)desosaminyl-6-O-methyl-erythronolide A 11,12-(cyclic carbamate)], the inhibitory constant (Ki) was 0.316 nM.

Regarding `CC[C@H]1OC(=O)[C@H](C)[C@@H](OC(=O)N2C(=O)OC[C@@H]2C)[C@H](C)[C@@H](O[C@@H]2O[C@H](C)C[C@H](N(C)C3CCC3)[C@H]2O)[C@](C)(OC)C[C@@H](C)C(=O)[C@H](C)[C@H]2N(CCc3ccc(F)cc3)C(=O)O[C@]12C` [Example 29, 11-Deoxy-11-[carboxy(4-fluorophenethyl)amino]-3-O-[4-(S)-methyl-oxazolidin-2-one]carbamoyl-5-O-(3'-N-desmethyl-3'-N-cyclobutyl)desosaminyl-6-O-methyl-erythronolide A 11,12-(cyclic carbamate)], the Ki is 0.105 nM.

`CC[C@H]1OC(=O)[C@H](C)[C@@H](OC(=O)N2C(=O)OC[C@@H]2C)[C@H](C)[C@@H](O[C@@H]2O[C@H](C)C[C@H](N(C)C3CCCC3)[C@H]2O)[C@](C)(OC)C[C@@H](C)C(=O)[C@H](C)[C@H]2N(CCc3ccc(F)cc3)C(=O)O[C@]12C` [Example 30, 11-Deoxy-11-[carboxy(4-fluorophenethyl)amino]-3-O-[4-(S)-methyl-oxazolidin-2-one]carbamoyl-5-O-(3'-N-desmethyl-3'-N-cyclopentyl)desosaminyl-6-O-methyl-erythronolide A 11,12-(cyclic carbamate)] had a Ki of 0.129 nM.

In the case of `CCCN(C)[C@H]1C[C@@H](C)O[C@@H](O[C@@H]2[C@@H](C)[C@H](OC(=O)N3C(=O)OC[C@@H]3C)[C@@H](C)C(=O)O[C@H](CC)[C@@]3(C)OC(=O)N(CCc4ccc(F)cc4)[C@@H]3[C@@H](C)C(=O)[C@H](C)C[C@@]2(C)OC)[C@@H]1O` [Example 31, 11-Deoxy-11-[carboxy(4-fluorophenethyl)amino]-3-O-[4-(S)-methyl-oxazolidin-2-one]carbamoyl-5-O-(3'-N-desmethyl-3'-N-n-propyl)desosaminyl-6-O-methyl-erythronolide A 11,12-(cyclic carbamate)], the inhibitory constant (Ki) is 0.955 nM.

Regarding `CC[C@H]1OC(=O)[C@H](C)[C@@H](OC(=O)N2C(=O)OC[C@@H]2C)[C@H](C)[C@@H](O[C@@H]2O[C@H](C)C[C@H](N(C)C(C)C)[C@H]2O)[C@](C)(OC)C[C@@H](C)C(=O)[C@H](C)[C@H]2N(CCc3ccc(F)cc3)C(=O)O[C@]12C` [Example 32, 11-Deoxy-11-[carboxy(4-fluorophenethyl)amino]-3-O-[4-(S)-methyl-oxazolidin-2-one]carbamoyl-5-O-(3'-N-desmethyl-3'-N-isopropyl)desosaminyl-6-O-methyl-erythronolide A 11,12-(cyclic carbamate)], the Ki was 0.155 nM.

For the compound `CC[C@H]1OC(=O)[C@H](C)[C@@H](OC(=O)N2C(=O)OC[C@@H]2C)[C@H](C)[C@@H](O[C@@H]2O[C@H](C)C[C@H](N(C)C3CCC3)[C@H]2O)[C@](C)(OC)C[C@@H](C)C(=O)[C@H](C)[C@H]2N(CCc3ccc(F)c(Cl)c3)C(=O)O[C@]12C` [Example 34, 11-Deoxy-11-[carboxy(3-chloro-fluorophenethyl)amino]-3-O-[4-(S)-methyl-oxazolidin-2-one]carbamoyl-5-O-(3'-N-desmethyl-3'-N-cyclobutyl)desosaminyl-6-O-methyl-erythronolide A 11,12-(cyclic carbamate)], the inhibition constant Ki is 0.0832 nM.

With `CC[C@H]1OC(=O)[C@H](C)[C@@H](OC(=O)N2C(=O)OC[C@@H]2C)[C@H](C)[C@@H](O[C@@H]2O[C@H](C)C[C@H](N(C)C3CCCC3)[C@H]2O)[C@](C)(OC)C[C@@H](C)C(=O)[C@H](C)[C@H]2N(CCc3ccc(F)c(Cl)c3)C(=O)O[C@]12C` [Example 35, 11-Deoxy-11-[carboxy(3-chloro-4-fluorophenethyl)amino]-3-O-[4-(S)-methyl-oxazolidin-2-one]carbamoyl-5-O-(3'-N-desmethyl-3'-N-cyclopentyl)desosaminyl-6-O-methyl-erythronolide A 11,12-(cyclic carbamate)], the affinity, expressed as Ki, was 0.851 nM.

As for `CC[C@H]1OC(=O)[C@H](C)[C@@H](OC(=O)N2C(=O)OC[C@@H]2C)[C@H](C)[C@@H](O[C@@H]2O[C@H](C)C[C@H](N(C)CC3CC3)[C@H]2O)[C@](C)(OC)C[C@@H](C)C(=O)[C@H](C)[C@H]2N(CCc3ccc(Cl)c(F)c3)C(=O)O[C@]12C` [Example 36, 11-Deoxy-11-[carboxy(4-chloro-3-fluorophenethyl)amino]-3-O-[4-(S)-methyl-oxazolidin-2-one]carbamoyl-5-O-(3'-N-desmethyl-3'-N-cyclopropylmethyl)desosaminyl-6-O-methyl-erythronolide A 11,12-(cyclic carbamate)], the affinity corresponds to a Ki of 3.72 nM.

Consider `CC[C@H]1OC(=O)[C@H](C)[C@@H](OC(=O)N2C(=O)OC[C@H]2C)[C@H](C)[C@@H](O[C@@H]2O[C@H](C)C[C@H](N(C)CC3CC3)[C@H]2O)[C@](C)(OC)C[C@@H](C)C(=O)[C@H](C)[C@H]2N(CCc3ccc(Cl)c(Cl)c3)C(=O)O[C@]12C` [Example 37, 11-Deoxy-11-[carboxy(3,4-dichlorophenethyl)amino]-3-O-[4-(R)-methyl-oxazolidin-2-one]carbamoyl-5-O-(3'-N-desmethyl-3'-N-cyclopropylmethyl)desosaminyl-6-O-methyl-erythronolide A 11,12-(cyclic carbamate)], for which the Ki was 5.37 nM.

As to `CC[C@H]1COC(=O)N1C(=O)O[C@H]1[C@H](C)[C@@H](O[C@@H]2O[C@H](C)C[C@H](N(C)CC3CC3)[C@H]2O)[C@](C)(OC)C[C@@H](C)C(=O)[C@H](C)[C@H]2N(CCc3ccc(Cl)c(Cl)c3)C(=O)O[C@]2(C)[C@@H](CC)OC(=O)[C@@H]1C` [Example 38, 11-Deoxy-11-[carboxy(3,4-dichlorophenethyl)amino]-3-O-[4-(S)-ethyl-oxazolidin-2-one]carbamoyl-5-O-(3'-N-desmethyl-3'-N-cyclopropylmethyl)desosaminyl-6-O-methyl-erythronolide A 11,12-(cyclic carbamate)], the affinity, expressed as Ki, was 6.76 nM.

With `CC[C@H]1OC(=O)[C@H](C)[C@@H](OC(=O)N2C[C@@H](C)OC2=O)[C@H](C)[C@@H](O[C@@H]2O[C@H](C)C[C@H](N(C)CC3CC3)[C@H]2O)[C@](C)(OC)C[C@@H](C)C(=O)[C@H](C)[C@H]2N(CCc3ccc(Cl)c(Cl)c3)C(=O)O[C@]12C` [Example 39, 11-Deoxy-11-[carboxy(3,4-dichlorophenethyl)amino]-3-O-[5-(R)-methyl-oxazolidin-2-one]carbamoyl-5-O-(3'-N-desmethyl-3'-N-cyclopropylmethyl)desosaminyl-6-O-methyl-erythronolide A 11,12-(cyclic carbamate)], the inhibition constant Ki is 2.82 nM.

In turn, `CC[C@H]1OC(=O)[C@H](C)[C@@H](OC(=O)N2C(=O)SC[C@@H]2C)[C@H](C)[C@@H](O[C@@H]2O[C@H](C)C[C@H](N(C)CC3CC3)[C@H]2O)[C@](C)(OC)C[C@@H](C)C(=O)[C@H](C)[C@H]2N(CCc3ccc(Cl)c(Cl)c3)C(=O)O[C@]12C` [Example 40, 11-Deoxy-11-[carboxy(3,4-dichlorophenethyl)amino]-3-O-[4-(S)-methyl-thiazolidin-2-one]carbamoyl-5-O-(3'-N-desmethyl-3'-N-cyclopropylmethyl)desosaminyl-6-O-methyl-erythronolide A 11,12-(cyclic carbamate)] gave a Ki of 8.13 nM.

The compound `CC[C@H]1OC(=O)[C@H](C)[C@@H](OC(=O)N2C(=S)OC[C@@H]2C)[C@H](C)[C@@H](O[C@@H]2O[C@H](C)C[C@H](N(C)CC3CC3)[C@H]2O)[C@](C)(OC)C[C@@H](C)C(=O)[C@H](C)[C@H]2N(CCc3ccc(Cl)c(Cl)c3)C(=O)O[C@]12C` [Example 41, 11-Deoxy-11-[carboxy(3,4-dichlorophenethyl)amino]-3-O-[4-(S)-methyl-oxazolidin-2-thione]carbamoyl-5-O-(3'-N-desmethyl-3'-N-cyclopropylmethyl)desosaminyl-6-O-methyl-erythronolide A 11,12-(cyclic carbamate)] showed a Ki of 10.2 nM.

Values taken from patent US6020521A, “Macrolide LHRH antagonists” (Abbott Laboratories, priority 1998, dated 2000).
